Assay results published in ChEMBL document CHEMBL4373693, “Virtual Screening Approach and Investigation of Structure-Activity Relationships To Discover Novel Bacterial Topoisomerase Inhibitors Targeting Gram-Positive and Gram-Negative Pathogens” (J Med Chem, 2019).
Converted amounts (≈) assume the structure as drawn. One block for each compound: values may come before it.

What was measured:
Staphylococcus aureus [1] = assay: Antibacterial activity against Staphylococcus aureus; format: functional
DNA gyrase [2] = biological target: DNA gyrase (Staphylococcus aureus, UniProt P0A0K8+P20831); assay: Inhibition of Staphylococcus aureus DNA gyrase; format: protein-complex assay
[3] = Inhibition of Escherichia coli DNA topoisomerase 4
DNA gyrase [4] = biological target: DNA gyrase (Escherichia coli, UniProt P0AES4+P0AES6); assay: Inhibition of Escherichia coli DNA gyrase; format: protein-complex assay
Escherichia coli [5] = assay: Antibacterial activity against Escherichia coli; format: functional
Topoisomerase IV = Topoisomerase IV (Staphylococcus aureus, UniProt P0C1S7+P0C1U9); assay: Inhibition of Staphylococcus aureus DNA topoisomerase 4; format: protein-complex assay
Escherichia coli [6] = assay: Selectivity ratio of MIC for Escherichia coli ATCC 25922 in presence of 50% human serum to MIC for Escherichia coli ATCC 25922; format: functional
Staphylococcus aureus [7] = assay: Antibacterial activity against Staphylococcus aureus BAA-1720 after 16 to 24 hrs by broth microdilution method; format: functional
[8] = Selectivity ratio, ratio of IC50 for human HepG2 cells to MIC for Escherichia coli ATCC 25922; format: toxicity; details: read-out: Selectivity Index
HEK293 = assay: Cytotoxicity against human HEK293 cells after 48 hrs by Alamar blue staining-based fluorometric analysis; format: cell-based; details: HEK293, 48 h
Staphylococcus aureus [9] = assay: Selectivity ratio of MIC for Staphylococcus aureus ATCC 29213 in presence of 50% human serum to MIC for Staphylococcus aureus ATCC 29213; format: functional
Enterococcus faecalis = assay: Antibacterial activity against Enterococcus faecalis ATCC 29212 after 16 to 24 hrs by broth microdilution method; format: functional
Staphylococcus aureus [10] = assay: Antibacterial activity against Staphylococcus aureus ATCC 29213 after 16 to 24 hrs by broth microdilution method; format: functional
Staphylococcus aureus [11] = assay: Antibacterial activity against Staphylococcus aureus ATCC 29213 in presence of 50% human serum after 16 to 24 hrs by broth microdilution method; format: functional
DNA gyrase subunit A [12] = biological target: DNA gyrase subunit A (Staphylococcus aureus, UniProt P20831); assay: Inhibition of Staphylococcus aureus ATCC 29213 DNA gyrase A assessed as reduction in enzyme-mediated supercoiling of relaxed pBR322 DNA by ethidium bromide staining based gel electrophoresis method
Klebsiella pneumoniae = assay: Antibacterial activity against quinolone-sensitive Klebsiella pneumoniae ATCC 700603 after 16 to 24 hrs by broth microdilution method; format: functional
[13] = Selectivity ratio, ratio of IC50 for human HEK293 cells to MIC for Staphylococcus aureus ATCC 29213; format: toxicity; details: read-out: Selectivity Index
Escherichia coli [14] = assay: Antibacterial activity against Escherichia coli ATCC 25922 in presence of 50% human serum after 16 to 24 hrs by broth microdilution method; format: functional
[15] = biological target: T1, DNA topoisomerase 4 subunit A (Escherichia coli K-12, UniProt P0AFI2); assay: Inhibition of Escherichia coli ATCC 25922 DNA topoisomerase 4 subunit ParC assessed as reduction in decatenation of kinetoplast DNA incubated for 30 mins by ethidium bromide staining based gel electrophoresis method
T1 sequence (P0AFI2 whole entry): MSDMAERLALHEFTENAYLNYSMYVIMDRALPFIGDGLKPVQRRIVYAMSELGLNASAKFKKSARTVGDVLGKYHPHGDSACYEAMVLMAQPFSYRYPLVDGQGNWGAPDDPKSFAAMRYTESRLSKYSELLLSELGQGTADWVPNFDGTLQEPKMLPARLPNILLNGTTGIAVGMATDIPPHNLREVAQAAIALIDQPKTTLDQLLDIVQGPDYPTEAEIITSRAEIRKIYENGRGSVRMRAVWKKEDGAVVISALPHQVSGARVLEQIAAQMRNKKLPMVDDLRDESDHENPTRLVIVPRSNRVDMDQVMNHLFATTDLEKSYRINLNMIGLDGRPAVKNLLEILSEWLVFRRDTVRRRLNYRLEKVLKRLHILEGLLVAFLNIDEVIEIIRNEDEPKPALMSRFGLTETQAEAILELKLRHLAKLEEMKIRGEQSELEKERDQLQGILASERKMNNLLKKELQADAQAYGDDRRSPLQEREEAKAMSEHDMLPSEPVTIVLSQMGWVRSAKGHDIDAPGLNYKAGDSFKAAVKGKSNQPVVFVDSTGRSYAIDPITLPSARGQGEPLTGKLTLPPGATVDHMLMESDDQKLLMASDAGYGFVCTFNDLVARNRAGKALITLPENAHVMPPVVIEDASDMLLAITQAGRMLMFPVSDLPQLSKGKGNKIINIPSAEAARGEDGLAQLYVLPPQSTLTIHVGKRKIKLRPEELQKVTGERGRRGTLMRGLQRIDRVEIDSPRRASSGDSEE

Escherichia coli [16] = assay: Antibacterial activity against Escherichia coli ATCC 25922 after 16 to 24 hrs by broth microdilution method; format: functional
Haemophilus influenzae [17] = assay: Antibacterial activity against quinolone-sensitive Haemophilus influenzae ATCC 49766 after 16 to 24 hrs by broth microdilution method; format: functional
Neisseria gonorrhoeae = assay: Antibacterial activity against Neisseria gonorrhoeae ATCC 19424 after 16 to 24 hrs by broth microdilution method; format: functional
Staphylococcus aureus [18] = assay: Antibacterial activity against Staphylococcus aureus BAA-1720 in presence of 50% human serum after 16 to 24 hrs by broth microdilution method; format: functional
HT-29 = assay: Cytotoxicity against human HT-29 cells after 24 hrs by resazurin dye based CellTiter-Blue assay; format: cell-based; details: HT-29, 24 h
Staphylococcus aureus [19] = assay: Selectivity ratio of MIC for Staphylococcus aureus BAA-1720 in presence of 50% human serum to MIC for Staphylococcus aureus BAA-1720; format: functional
Haemophilus influenzae [20] = assay: Antibacterial activity against quinolone-sensitive Haemophilus influenzae H128 after 16 to 24 hrs by broth microdilution method; format: functional
DNA gyrase subunit A [21] = biological target: DNA gyrase subunit A (Escherichia coli K-12, UniProt P0AES4); assay: Inhibition of Escherichia coli ATCC 25922 DNA gyrase A assessed as reduction in enzyme-mediated supercoiling of relaxed pBR322 DNA by ethidium bromide staining based gel electrophoresis method
HepG2 = assay: Cytotoxicity against human HepG2 cells after 48 hrs by Alamar blue staining-based fluorometric analysis; format: cell-based; details: HepG2, 48 h
[22] = Selectivity ratio, ratio of IC50 for human HepG2 cells to MIC for Staphylococcus aureus ATCC 29213; format: toxicity; details: read-out: Selectivity Index
Enterococcus faecium = assay: Antibacterial activity against vancomycin resistant and teicoplanin sensitive Enterococcus faecium APV 00420 after 16 to 24 hrs by broth microdilution method; format: functional
Pseudomonas aeruginosa = assay: Antibacterial activity against Pseudomonas aeruginosa ATCC 27853 after 16 to 24 hrs by CLSI method; format: functional
[23] = biological target: DNA topoisomerase 4 subunit A (Staphylococcus aureus, UniProt P0C1U9); assay: Inhibition of Staphylococcus aureus ATCC 29213 DNA topoisomerase 4 subunit ParC assessed as reduction in decatenation of kinetoplast DNA incubated for 30 mins by ethidium bromide staining based gel electrophoresis method
[24] = Cytotoxicity against human HCE2 cells incubated for 2 hrs by MTT assay; format: cell-based
[25] = Selectivity ratio, ratio of IC50 for human HEK293 cells to MIC for Escherichia coli ATCC 25922; format: toxicity; details: read-out: Selectivity Index

MIC90 (Staphylococcus aureus [1]): 0.016 µg/mL (≈ 0.0334 µM)
IC50 (DNA gyrase [2]): 8 nM
IC50 [3]: 30 nM
IC50 (DNA gyrase [4]): 125 nM
MIC90 (Escherichia coli [5]): 0.5 µg/mL (≈ 1.04 µM)
IC50 (Topoisomerase IV): 2000 nM
SMILES: O=C1COc2ccc(N3C[C@H](CCCN[C@@H]4Cn5c(=O)ccc6ccc(F)c4c65)OC3=O)nc2N1

SMILES: COc1ccc2cc(F)nc(N3CCN(CC(O)CNc4cc(=O)oc5ccc(F)cc45)CC3)c2c1 (racemic)
Ratio (Escherichia coli [6]): >=32 - 267
MIC (Staphylococcus aureus [7]): 0.03 µg/mL (≈ 0.0604 µM)
selectivity ratio [8]: 25
IC50 (HEK293): 66000 nM
Ratio (Staphylococcus aureus [9]): >=32 - 267
MIC (Enterococcus faecalis): 0.25 µg/mL (≈ 0.504 µM)
MIC (Staphylococcus aureus [10]): < 0.12 µM
MIC (Staphylococcus aureus [11]): 8 µg/mL
IC50 (DNA gyrase subunit A [12]): < 100 nM
MIC (Klebsiella pneumoniae): 4 µg/mL (≈ 8.06 µM)
selectivity ratio [13]: > 5500
MIC (Escherichia coli [14]): > 8 µg/mL
IC50 [15]: 100 nM
MIC (Escherichia coli [16]): 1 µM (≈ 0.497 µg/mL)
MIC (Haemophilus influenzae [17]): 0.5 µg/mL (≈ 1.01 µM)
MIC (Neisseria gonorrhoeae): ≤ 0.06 µg/mL
MIC (Staphylococcus aureus [18]): 4 µg/mL
IC50 (HT-29): > 100000 nM
Ratio (Staphylococcus aureus [19]): >=32 - 267
MIC (Haemophilus influenzae [20]): 0.5 µg/mL (≈ 1.01 µM)
IC50 (DNA gyrase subunit A [21]): 40 nM
IC50 (HepG2): 25000 nM
selectivity ratio [22]: > 208
MIC (Enterococcus faecium): 0.12 µg/mL (≈ 0.242 µM)
MIC (Pseudomonas aeruginosa): 4 µg/mL (≈ 8.06 µM)
IC50 [23]: < 100 nM
IC50 [24]: > 150000 nM
selectivity ratio [25]: 66
